Assay results from PubChem BioAssay AID2060488 (Molecular Pharmacology Branch, DTP, NCI, 2025).

Tested on: 966289-007-R4-J1-PDC complex spheroid viability
Assay: Anticancer human tumor 966289-007-R4-J1-PDC patient-derived pancreatic adenocarcinoma cell line growth inhibition [GQUAD]
Conditions: for IC50: curve of first compound; for viability, T/C: stronger effect = lower value
Excerpt: DNA G-quadruplex Stabilizer Agents in Combinations in Complex Spheroids
A high-throughput screen of multi-cell type tumor spheroids was designed to identify active combinations of DNA G-quadruplex stabilizer agents and targeted small molecules. Complex spheroids include a stromal component modeled by human endothelial cells (HUVEC) and fibroblasts modeled by human mesenchymal stem cells (MSCs). The concentration ranges selected for each drug and investigational agent were based upon clinically achievable concentrations if the clinical Cmax of the agent was known.
Compounds. The drugs and investigational agents: pidnarulex (CX-5461; NSC782164), APTO-253 (NSC789042), BRACO-19 (NSC847499), peposertib (NSC802822), ceralasertib (NSC780249), elimusertib (NSC800525), camonsertib (NSC841442), AZD-1390 (NSC803789), olaparib (NSC753686), talazoparib (NSC767125), ART-558 (NSC835418), sotorasib (NSC818433), MRTX-1133 (NSC836407), SN-38 (NSC673596), topotecan (NSC609699), etoposide (NSC141540), doxorubicin (NSC123127), gemcitabine (NSC613327), 5-fluorouracil (NSC19893), paclitaxel (NSC125973), vemurafenib (NSC761431), panobinostat (NSC761190), R-306465 (JNJ-16241199; NSC773264), adavosertib (NSC754352), TP-3654 (NSC805149), carboplatin (NSC241240), KSQ-4279 (NSC840948), and staurosporine (NSC755774) were obtained from the National Cancer Institute (NCI) Developmental Therapeutics Program Chemical Repository (34). The FDA-approved anticancer drug set is available from the NCI Developmental Therapeutics Program. […] The stock solutions were prepared in dimethyl sulfoxide (DMSO, Sigma-Aldrich, St. Louis, MO, cat. D2650) at 800-fold the tested concentration and stored at -70 degrees C prior to their use. All drugs and investigational agents were tested over a range starting from a high concentration at or near the clinical Cmax and decreasing in half-log increments. If the clinical Cmax for an agent had not been determined, the highest concentration tested was 10 microM.
2.3 Cell Culture. All cells were maintained in an incubator at 37 degrees C and 5% CO2 with 95% humidity. The PDC lines were cultured according to standard operating procedures established by the NCI PDMR. All PDCs were thawed and cultured in Matrigel-coated flasks prepared with a working solution of 1X Ham's F-12 nutrient mix, without supplementation (Invitrogen, cat. 11765054), 100 U/mL penicillin-streptomycin (Invitrogen, cat. 15140122), and 2.5% Matrigel (Corning Inc., cat. 354248) for the first three passages. The 857933-349-R-J2-PDC line was cultured in 6C/Colon 1B media, which includes advanced DMEM/F-12 (Thermo Fisher Scientific, cat. 12634028), 10 mM HEPES (Thermo Fisher Scientific, cat. 15630080), 1X GlutaMAX supplement (Thermo Fisher Scientific, cat. 35050061), 0.1 mg/mL primocin (InvivoGen, cat. ant-pm-2), 10% defined fetal bovine serum, heat inactivated (HyClone Laboratories Inc., cat. SH30070.03HI), 50% L-WRN conditioned media (ATCC, cat. CRL-3276), 1.25 mM N-Acetyl-L-cysteine (Sigma-Aldrich, cat. A9165), 10 mM nicotinamide (Sigma-Aldrich, cat. N0636), 1X B-27 supplement (Thermo Fisher Scientific, cat. 17504044), 1X N-2 supplement (Thermo Fisher Scientific, cat. 17502048), 10 microM Y-27632 dihydrochloride (Tocris Bioscience, cat. 1254), and 50 ng/mL human EGF recombinant protein (Thermo Fisher Scientific, cat. PHG0311). The 485176-168-R4-J1-PDC line was cultured in Panc media, which includes all 6C/Colon 1B media components plus 100 ng/mL human FGF-10 (Thermo Fisher Scientific, cat. 100-26), 500 nM SB-431542 (Selleckchem, cat. S1067), and gastrin (Tocris, cat. 3006).
[…]

[1] = second compound 0.0316 µM, first compound 0.0316 µM
[2] = second compound 0.0316 µM, first compound 0.1 µM
[3] = second compound 0.0316 µM, first compound 0.316 µM
[4] = second compound 0.0316 µM, first compound 1 µM
[5] = second compound 0.0316 µM, first compound 3.16 µM
[6] = second compound 0.0316 µM, first compound 10 µM
[7] = second compound 0.1 µM, first compound 0.0316 µM
[8] = second compound 0.1 µM, first compound 0.1 µM
[9] = second compound 0.1 µM, first compound 0.316 µM
[10] = second compound 0.1 µM, first compound 1 µM
[11] = second compound 0.1 µM, first compound 3.16 µM
[12] = second compound 0.1 µM, first compound 10 µM
[13] = second compound 0.316 µM, first compound 0.0316 µM
[14] = second compound 0.316 µM, first compound 0.1 µM
[15] = second compound 0.316 µM, first compound 0.316 µM
[16] = second compound 0.316 µM, first compound 1 µM
[17] = second compound 0.316 µM, first compound 3.16 µM
[18] = second compound 0.316 µM, first compound 10 µM
[19] = second compound 1 µM, first compound 0.0316 µM
[20] = second compound 1 µM, first compound 0.1 µM
[21] = second compound 1 µM, first compound 0.316 µM
[22] = second compound 1 µM, first compound 1 µM
[23] = second compound 1 µM, first compound 3.16 µM
[24] = second compound 1 µM, first compound 10 µM
[25] = second compound 3.16 µM, first compound 0.0316 µM
[26] = second compound 3.16 µM, first compound 0.1 µM
[27] = second compound 3.16 µM, first compound 0.316 µM
[28] = second compound 3.16 µM, first compound 1 µM
[29] = second compound 3.16 µM, first compound 3.16 µM
[30] = second compound 3.16 µM, first compound 10 µM
[31] = second compound 10 µM, first compound 0.0316 µM
[32] = second compound 10 µM, first compound 0.1 µM
[33] = second compound 10 µM, first compound 0.316 µM
[34] = second compound 10 µM, first compound 1 µM
[35] = second compound 10 µM, first compound 3.16 µM
[36] = second compound 10 µM, first compound 10 µM
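Note: spheroids exposed to the agents for seven days before readout.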
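Throughout, for viability, T/C: percent viability relative to DMSO vehicle control wells taken as 100%.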

With `C#Cc1c(F)ccc2cc(O)cc(-c3ncc4c(N5CC6CCC(C5)N6)nc(OCC56CCCN5CC(F)C6)nc4c3F)c12` (centres undefined) + CN(C)c1ccc(Nc2c3ccc(NC(=O)CCN4CCCC4)cc3nc3cc(NC(=O)CCN4CCCC4)ccc23)cc1 the IC50 (second compound 0.0316 µM) was greater than 10 µM, the IC50 (second compound 0.1 µM) was greater than 10 µM and the IC50 (second compound 0.316 µM) was greater than 10 µM. It also gave an IC50 (second compound 1 µM) greater than 10 µM, an IC50 (second compound 3.16 µM) greater than 10 µM and an IC50 (second compound 10 µM) of 1.79 µM. The viability, T/C [1] was 103%, the viability, T/C [2] was 88.4% and the viability, T/C [3] was 98.5%. For the same compound, the viability, T/C [4] was 86.7%, the viability, T/C [5] was 95.9% and the viability, T/C [6] was 93.5%. It also gave a viability, T/C [7] of 96.8%, a viability, T/C [8] of 84.4% and a viability, T/C [9] of 94.5%. For the same compound, the viability, T/C [10] was 89%, the viability, T/C [11] was 90.7% and the viability, T/C [12] was 96%. For the same compound, the viability, T/C [13] was 98.2%, the viability, T/C [14] was 91.2% and the viability, T/C [15] was 105%. The viability, T/C [16] was 96.3%, the viability, T/C [17] was 95.2% and the viability, T/C [18] was 103%. It also gave a viability, T/C [19] of 87.9%, a viability, T/C [20] of 89.9% and a viability, T/C [21] of 98.8%. It also gave a viability, T/C [22] of 96.8%, a viability, T/C [23] of 95.5% and a viability, T/C [24] of 102%. It also gave a viability, T/C [25] of 88.5%, a viability, T/C [26] of 91.1% and a viability, T/C [27] of 96.8%. For the same compound, the viability, T/C [28] was 99.4%, the viability, T/C [29] was 104% and the viability, T/C [30] was 68.7%. The viability, T/C [31] was 104%, the viability, T/C [32] was 106% and the viability, T/C [33] was 103%. The viability, T/C [34] was 85%, the viability, T/C [35] was 16.1% and the viability, T/C [36] was 0.99%.
`CC1COCCN1c1cc(C2(S(C)(=N)=O)CC2)nc(-c2ccnc3[nH]ccc23)n1` (centres undefined) + Cc1[nH]c2ccc(F)cc2c1-c1nc2c3cccnc3c3ncccc3c2[nH]1 showed an IC50 (second compound 0.0316 µM) of 2.5 µM, an IC50 (second compound 0.1 µM) of 3.03 µM and an IC50 (second compound 0.316 µM) of 3.13 µM. The IC50 (second compound 1 µM) was 2.87 µM, the IC50 (second compound 3.16 µM) was 1.75 µM and the IC50 (second compound 10 µM) was 1.45 µM. The viability, T/C [1] was 104%, the viability, T/C [2] was 91.8% and the viability, T/C [3] was 109%. The viability, T/C [4] was 90.9%, the viability, T/C [5] was 39.4% and the viability, T/C [6] was 7.57%. It also gave a viability, T/C [7] of 106%, a viability, T/C [8] of 104% and a viability, T/C [9] of 105%. For the same compound, the viability, T/C [10] was 96.3%, the viability, T/C [11] was 48.2% and the viability, T/C [12] was 8.79%. The viability, T/C [13] was 99.8%, the viability, T/C [14] was 100% and the viability, T/C [15] was 106%. The viability, T/C [16] was 101%, the viability, T/C [17] was 49.6% and the viability, T/C [18] was 6.54%. For the same compound, the viability, T/C [19] was 99.2%, the viability, T/C [20] was 103% and the viability, T/C [21] was 108%. It also gave a viability, T/C [22] of 90.6%, a viability, T/C [23] of 46.4% and a viability, T/C [24] of 7.68%. The viability, T/C [25] was 101%, the viability, T/C [26] was 106% and the viability, T/C [27] was 107%. For the same compound, the viability, T/C [28] was 77.5%, the viability, T/C [29] was 20.6% and the viability, T/C [30] was 5.11%. For the same compound, the viability, T/C [31] was 101%, the viability, T/C [32] was 100% and the viability, T/C [33] was 97.7%. For the same compound, the viability, T/C [34] was 69.1%, the viability, T/C [35] was 9.9% and the viability, T/C [36] was 3.37%.
